Laboratory results reported in ChEMBL document CHEMBL1201862, “PubChem BioAssay data set” (2004).
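Protocol summary: plate cells (96-well), add compound at 5 concentrations, incubate 48 h, interpolate endpoints linearly. GI50 = concentration required for 50% inhibition of growth.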 Active and inactive are the calls of the source. Cut-off read from the data, not from the text of the source: active = GI50 up to about 1.1 µM and inactive = higher.

Tests used:
Assay in all cases: growth of human tumour cells (NCI), 48 h
786-0 = tested on: 786-0
A498 = tested on: A498
CCRF-CEM = tested on: CCRF-CEM
COLO 205 = tested on: COLO 205
HCC 2998 = tested on: HCC 2998
HCT-116 = tested on: HCT-116
HCT-15 = tested on: HCT-15
HOP-92 = tested on: HOP-92
KM12 = tested on: KM12
MCF7 = tested on: MCF7
NCI-H23 = tested on: NCI-H23
NCI-H522 = tested on: NCI-H522
OVCAR-4 = tested on: OVCAR-4
OVCAR-5 = tested on: OVCAR-5
PC-3 = tested on: PC-3
SF-295 = tested on: SF-295
SK-MEL-5 = tested on: SK-MEL-5
SK-OV-3 = tested on: SK-OV-3
SN12C = tested on: SN12C
UO-31 = tested on: UO-31

| Compound | GI50 (786-0) | GI50 (A498) | GI50 (CCRF-CEM) | GI50 (COLO 205) | GI50 (HCC 2998) | GI50 (HCT-116) | GI50 (HCT-15) | GI50 (HOP-92) | GI50 (KM12) | GI50 (MCF7) | GI50 (NCI-H23) | GI50 (NCI-H522) | GI50 (OVCAR-4) | GI50 (OVCAR-5) | GI50 (PC-3) | GI50 (SF-295) | GI50 (SK-MEL-5) | GI50 (SK-OV-3) | GI50 (SN12C) | GI50 (UO-31) |
| --- | --- | --- | --- | --- | --- | --- | --- | --- | --- | --- | --- | --- | --- | --- | --- | --- | --- | --- | --- | --- |
| O=C1C2CCCCC2C(=O)N1n1c(Cc2ccccc2)n[nH]c1=O (stereo not given) | > 100 µM (inactive) | > 100 µM (inactive) | > 100 µM (inactive) | > 100 µM (inactive) | > 100 µM (inactive) | > 100 µM (inactive) | > 100 µM | > 100 µM (inactive) | > 100 µM (inactive) | > 100 µM (inactive) | > 100 µM (inactive) | > 100 µM (inactive) | > 100 µM (inactive) | > 100 µM (inactive) | > 100 µM (inactive) | > 100 µM (inactive) | > 100 µM (inactive) | > 100 µM (inactive) | > 100 µM (inactive) | > 100 µM (inactive) |
| CN(C)c1ccc(/C=C(\NC(=O)c2ccccc2)C(=O)Nc2cccc(C(=O)NCCCO)c2)cc1 | > 100 µM (inactive) | > 100 µM (inactive) | > 100 µM (inactive) | > 100 µM (inactive) | > 100 µM (inactive) | > 100 µM (inactive) | > 100 µM | > 100 µM (inactive) | > 100 µM (inactive) | > 100 µM (inactive) | > 100 µM (inactive) | > 100 µM (inactive) | > 100 µM (inactive) | > 100 µM (inactive) | > 100 µM (inactive) | > 100 µM (inactive) | > 100 µM (inactive) | > 100 µM (inactive) | > 100 µM (inactive) | > 100 µM (inactive) |
| N=C(N)SC(c1ccccc1)c1ccccc1 | 12.6 µM (inactive) | 17.3 µM (inactive) | 10.5 µM (inactive) | 21.8 µM (inactive) | 6.18 µM (inactive) | 12.2 µM (inactive) | 16.4 µM | 6.87 µM (inactive) | 16.2 µM (inactive) | 15.4 µM (inactive) | 13 µM (inactive) | 13.2 µM (inactive) | 18.3 µM (inactive) | 14.2 µM (inactive) | 14.3 µM (inactive) | 16.9 µM (inactive) | 17.3 µM (inactive) | 32.3 µM (inactive) | 16 µM (inactive) | 11.2 µM (inactive) |
| COC(=O)/C(=C/c1ccc(OC)cc1)c1cc(OC)c(OC)c(OC)c1 | 4.12 µM (inactive) | 7.05 µM (inactive) | 1.39 µM (inactive) | 1.47 µM (inactive) | 10.7 µM (inactive) | 2.16 µM (inactive) | 0.646 µM | 3.98 µM (inactive) | 0.521 µM (active) | 0.604 µM (active) | 2.84 µM (inactive) | 0.614 µM (active) | 7.43 µM (inactive) | 14.9 µM (inactive) | 0.693 µM (active) | 0.706 µM (active) | 0.569 µM (active) | 1.34 µM (inactive) | 5.08 µM (inactive) | 5.46 µM (inactive) |
| C[N+]1([O-])C2CCC1CC(OC(=O)C(CO)c1ccccc1)C2 (stereo not given) | > 100 µM (inactive) | > 100 µM (inactive) | > 100 µM (inactive) | > 100 µM (inactive) | > 100 µM (inactive) | > 100 µM (inactive) | > 55.8 µM | > 63.2 µM (inactive) | > 100 µM (inactive) | > 100 µM (inactive) | > 33.8 µM (inactive) | > 100 µM (inactive) | > 100 µM (inactive) | > 100 µM (inactive) | > 100 µM (inactive) | > 100 µM (inactive) | > 100 µM (inactive) | > 100 µM (inactive) | > 81.7 µM (inactive) | > 100 µM (inactive) |
| CC(C)(C)OC(=O)C1CC[C@@H](CC(=O)Oc2ccc([N+](=O)[O-])cc2)N1 (stereo not given in full) | > 100 µM (inactive) | > 100 µM (inactive) | > 100 µM (inactive) | > 100 µM (inactive) | > 100 µM (inactive) | > 100 µM (inactive) | > 100 µM | > 100 µM (inactive) | > 100 µM (inactive) | > 100 µM (inactive) | > 100 µM (inactive) | > 100 µM (inactive) | > 100 µM (inactive) | > 100 µM (inactive) | > 100 µM (inactive) | > 100 µM (inactive) | > 100 µM (inactive) | > 100 µM (inactive) | > 100 µM (inactive) | > 100 µM (inactive) |
| C[C@]12CC[C@@H]3c4ccc(OC(=O)c5ccccc5)cc4CC[C@H]3[C@@H]1CCC2OC(=O)c1cccc2c(=O)c3ccccc3[nH]c12 (stereo not given in full) | 17.5 µM (inactive) | 26 µM (inactive) | 24.7 µM (inactive) | 16.9 µM (inactive) | 15.2 µM (inactive) | 16.4 µM (inactive) | 13.1 µM | 18 µM (inactive) | 15.4 µM (inactive) | 12.2 µM (inactive) | 20.8 µM (inactive) | 23.3 µM (inactive) | 15.6 µM (inactive) | 18.2 µM (inactive) | 13.4 µM (inactive) | 18.2 µM (inactive) | 24.1 µM (inactive) | 30.4 µM (inactive) | 14.4 µM (inactive) | 27.6 µM (inactive) |
| O=C1CCC2c3ccccc3NCN12 (stereo not given) | > 100 µM (inactive) | > 100 µM (inactive) | > 100 µM (inactive) | > 100 µM (inactive) | > 100 µM (inactive) | > 100 µM (inactive) | > 100 µM | > 100 µM (inactive) | > 100 µM (inactive) | > 100 µM (inactive) | > 100 µM (inactive) | > 100 µM (inactive) | > 100 µM (inactive) | > 100 µM (inactive) | > 100 µM (inactive) | > 100 µM (inactive) | > 100 µM (inactive) | > 100 µM (inactive) | > 100 µM (inactive) | > 100 µM (inactive) |
| COc1nc2c(c(=O)n1C)NC(C(O)C(O)CO)C=N2 (stereo not given) | > 10 µM (inactive) | > 10 µM (inactive) | > 10 µM (inactive) | > 10 µM (inactive) | > 10 µM (inactive) | > 10 µM (inactive) | > 10 µM | > 10 µM (inactive) | > 10 µM (inactive) | > 10 µM (inactive) | > 10 µM (inactive) | > 10 µM (inactive) | > 10 µM (inactive) | > 10 µM (inactive) | > 10 µM (inactive) | > 10 µM (inactive) | > 10 µM (inactive) | > 10 µM (inactive) | > 10 µM (inactive) | > 10 µM (inactive) |
| O=C1Cc2c(-c3cccs3)cc(-c3ccccc3)nc2-c2ccccc2N1 | 21.9 µM (inactive) | > 100 µM (inactive) | > 100 µM (inactive) | 43.4 µM (inactive) | 47.3 µM (inactive) | 32.9 µM (inactive) | 40.1 µM | > 100 µM (inactive) | 14 µM (inactive) | 96.8 µM (inactive) | > 100 µM (inactive) | 27.8 µM (inactive) | 0.855 µM (active) | > 100 µM (inactive) | 47.1 µM (inactive) | 47.4 µM (inactive) | 19.5 µM (inactive) | 24.4 µM (inactive) | 67.5 µM (inactive) | > 100 µM (inactive) |
| Cc1cc2c(cc1C)[n+]([O-])c(C(=O)/C=C/c1ccccc1[N+](=O)[O-])c(C)[n+]2[O-] | 33 µM (inactive) | 61.2 µM (inactive) | > 100 µM (inactive) | 99.3 µM (inactive) | 71.6 µM (inactive) | 70.8 µM (inactive) | 73.8 µM | 34.4 µM (inactive) | > 100 µM (inactive) | > 46.5 µM (inactive) | 48.5 µM (inactive) | 28.6 µM (inactive) | > 100 µM (inactive) | > 100 µM (inactive) | > 100 µM (inactive) | 36.3 µM (inactive) | > 100 µM (inactive) | > 46.7 µM (inactive) | 69 µM (inactive) | 99.5 µM (inactive) |
| COc1ccc(Cl)cc1NC(=O)c1cccc([N+](=O)[O-])c1O | 16.8 µM (inactive) | 5.7 µM (inactive) | 16 µM (inactive) | 13.5 µM (inactive) | 14 µM (inactive) | 16.6 µM (inactive) | 21.8 µM | 3 µM (inactive) | 19.5 µM (inactive) | 20.9 µM (inactive) | 10.4 µM (inactive) | 6.49 µM (inactive) | 10.2 µM (inactive) | 27.8 µM (inactive) | 9.14 µM (inactive) | 17.8 µM (inactive) | 4 µM (inactive) | 24.7 µM (inactive) | 12.6 µM (inactive) | 7.35 µM (inactive) |
| Cc1coc2c1C(=O)C(=O)c1c-2ccc2c1CCCC2(C)C [TANSHINONE IIA] | 1.87 µM (inactive) | 7.74 µM (inactive) | 7.52 µM (inactive) | 8.07 µM (inactive) | 4.06 µM (inactive) | 1.55 µM (inactive) | 0.673 µM | > 70.5 µM (inactive) | 3.76 µM (inactive) | 2.18 µM (inactive) | 1.14 µM (inactive) | 1.54 µM (inactive) | 10.6 µM (inactive) | 9.42 µM (inactive) | 2.34 µM (inactive) | 2.48 µM (inactive) | 0.213 µM (active) | 21.3 µM (inactive) | 3.7 µM (inactive) | 2.33 µM (inactive) |
| COc1ccc(/C=N/n2c(-c3ccccc3)n[nH]c2=O)c(OC)c1 | 30.5 µM (inactive) | 31.6 µM (inactive) | > 100 µM (inactive) | > 100 µM (inactive) | > 100 µM (inactive) | 54.5 µM (inactive) | > 100 µM | 36.5 µM (inactive) | 45.8 µM (inactive) | 49.4 µM (inactive) | 39.4 µM (inactive) | > 52.2 µM (inactive) | 27 µM (inactive) | > 92.9 µM (inactive) | 50.1 µM (inactive) | 32.7 µM (inactive) | > 68.9 µM (inactive) | 31.8 µM (inactive) | 44 µM (inactive) | 24.4 µM (inactive) |
